The test system of data set [1] is 8-OHdG adducts in HDFs. Conditions: human, 30 min, 500 μM.
Experimental: DNA was extracted right after the exposure (T0, white bars) or three hours after the challenge period (T3, black bars). DNA was digested and the 8-OHdG adducts were measured by ELISA kit as per the manufacturer's instructions. Values are shown (ng/mL) as mean±SD (n=3).
The test system of data set [2] is primary HDF cultures. Conditions: human, 1 month, 5 μM.
Data set [3] relates to murine polychromatic erythrocytes. Conditions: for PCE/NCE ratio: cyclophosphamide 8 mg/mL, 12.5 ml/kg i.p. on day 2. The protocol:
The mammalian in vivo micronucleus test is used for the identification of substances which cause damage to chromosomes or the mitotic apparatus of murine polychromatic erythrocytes. This damage results in the formation of “micronuclei,” intracellular structures containing lagging chromosome fragments or isolated whole chromosomes. […] The positive control mice received a single intraperitoneal injection of cyclophosphamide (8 mg/mL, 12.5 ml/kg) on day 2. All mice were observed immediately after injection for any adverse reactions. […] On day 3, all mice were weighed and terminated.
The femurs were excised from the terminated mice, the bone marrow was extracted, and duplicate smear preparations were performed for each mouse. The bone marrow slides for each animal were read at 40× magnification. The ratio of polychromatic erythrocytes (PCE) to normochromatic erythrocytes (NCE), an index of bone marrow toxicity, was determined for each mouse by counting a total of at least 200 erythrocytes. Then a minimum of 2000 scoreable PCE per mouse were evaluated for the incidence of micronucleated polychromatic erythrocytes. Statistical analysis of the data were done using the Mann and Whitney test (at 5% risk threshold) from a statistical software package (Statview 5.0, SAS Institute Inc., USA).

SMILES strings stand for the structures. Like-named read-outs stand apart in the source and are kept apart here.

On to `OO` [HP, hydrogen peroxide], for which the “increase of 8-OHdG adducts relative to control-treated or ORP water solution-treated cells” value in data set [1] was “about 25 fold”. Also, the “cells with increased SA-β-Gal expression” value in data set [2] is 86%.

In the case of `O=P1(N(CCCl)CCCl)NCCCO1` (centres unmarked) [cyclophosphamide], the values for the PCE/NCE ratio in data set [3] (females) and in data set [3] (males) were 0.73 and 0.77, respectively. Moreover, in data set [3] (males, ORP water solution = Microcyn 10%, 12.5 ml/kg i.p.), the “number of polychromatic erythrocytes bearing micronuclei” value was 11.0.

The values above are taken from patent US8323252B2, “Method of treating skin ulcers using oxidative reductive potential water solution” (priority 2005, dated 2012).
